The values below are quoted from earlier work in patent US20150376703A1, “METHOD AND SYSTEM TO PREDICT RESPONSE TO PAIN TREATMENTS” (PATHWAY GENOMICS CORPORATION, priority 2013, published 2015).

One data set deals with T1, 5-Lipoxygenase (ALOX5) (Homo sapiens, UniProt P09917).
T1 construct: host or cells: patients (endogenous enzyme)
T1 sequence (P09917 1-674): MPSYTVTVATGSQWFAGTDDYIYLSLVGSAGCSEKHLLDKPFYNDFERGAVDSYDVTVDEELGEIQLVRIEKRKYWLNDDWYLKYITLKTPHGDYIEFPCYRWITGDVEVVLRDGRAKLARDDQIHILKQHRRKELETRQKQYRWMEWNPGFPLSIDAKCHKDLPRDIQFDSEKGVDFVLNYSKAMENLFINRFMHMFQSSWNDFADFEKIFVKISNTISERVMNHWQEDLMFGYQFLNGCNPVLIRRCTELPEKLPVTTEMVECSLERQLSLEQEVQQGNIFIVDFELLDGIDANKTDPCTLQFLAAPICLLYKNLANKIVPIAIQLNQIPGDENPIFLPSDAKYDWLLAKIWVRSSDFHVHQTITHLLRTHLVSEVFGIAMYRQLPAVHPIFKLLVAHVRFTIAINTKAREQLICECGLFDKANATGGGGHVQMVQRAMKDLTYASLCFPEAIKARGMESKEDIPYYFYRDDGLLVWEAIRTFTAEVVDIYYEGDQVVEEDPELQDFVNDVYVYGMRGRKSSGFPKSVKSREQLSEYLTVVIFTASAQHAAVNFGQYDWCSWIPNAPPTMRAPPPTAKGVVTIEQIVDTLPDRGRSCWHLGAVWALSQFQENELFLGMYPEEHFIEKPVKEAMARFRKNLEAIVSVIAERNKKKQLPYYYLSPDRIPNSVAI
The following applies: patients who share a specific tandem repeat in the promoter.

The next data set deals with T2, ACE (I/D) (Homo sapiens, UniProt P12821).
T2 construct: host or cells: patients (endogenous enzyme)
The following applies: patients bearing the ACE-II-Allele.

Another data set has as its target T3, KCNE2 (T8A in MiRP 1) (Homo sapiens, UniProt Q12809+Q9Y6J6, T8A).
T3 construct: host or cells: patients (endogenous protein)

The test system of the next data set is Alpha-Adducin. To be noted: patients who share the 460Gly/Trp polymorphism.
For data set [1], the system named is Glycoprotein IIIa (PLA1/A2) subunit of glycoprotein IIb/IIIa. To be noted: patients carrying the PLA2 polymorphism.

T3 sequence (Q9Y6J6 whole entry T8A): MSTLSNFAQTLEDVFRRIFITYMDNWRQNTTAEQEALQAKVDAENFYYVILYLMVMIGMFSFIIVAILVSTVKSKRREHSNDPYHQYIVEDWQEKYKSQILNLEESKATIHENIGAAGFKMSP
T3 sequence (Q12809 whole entry): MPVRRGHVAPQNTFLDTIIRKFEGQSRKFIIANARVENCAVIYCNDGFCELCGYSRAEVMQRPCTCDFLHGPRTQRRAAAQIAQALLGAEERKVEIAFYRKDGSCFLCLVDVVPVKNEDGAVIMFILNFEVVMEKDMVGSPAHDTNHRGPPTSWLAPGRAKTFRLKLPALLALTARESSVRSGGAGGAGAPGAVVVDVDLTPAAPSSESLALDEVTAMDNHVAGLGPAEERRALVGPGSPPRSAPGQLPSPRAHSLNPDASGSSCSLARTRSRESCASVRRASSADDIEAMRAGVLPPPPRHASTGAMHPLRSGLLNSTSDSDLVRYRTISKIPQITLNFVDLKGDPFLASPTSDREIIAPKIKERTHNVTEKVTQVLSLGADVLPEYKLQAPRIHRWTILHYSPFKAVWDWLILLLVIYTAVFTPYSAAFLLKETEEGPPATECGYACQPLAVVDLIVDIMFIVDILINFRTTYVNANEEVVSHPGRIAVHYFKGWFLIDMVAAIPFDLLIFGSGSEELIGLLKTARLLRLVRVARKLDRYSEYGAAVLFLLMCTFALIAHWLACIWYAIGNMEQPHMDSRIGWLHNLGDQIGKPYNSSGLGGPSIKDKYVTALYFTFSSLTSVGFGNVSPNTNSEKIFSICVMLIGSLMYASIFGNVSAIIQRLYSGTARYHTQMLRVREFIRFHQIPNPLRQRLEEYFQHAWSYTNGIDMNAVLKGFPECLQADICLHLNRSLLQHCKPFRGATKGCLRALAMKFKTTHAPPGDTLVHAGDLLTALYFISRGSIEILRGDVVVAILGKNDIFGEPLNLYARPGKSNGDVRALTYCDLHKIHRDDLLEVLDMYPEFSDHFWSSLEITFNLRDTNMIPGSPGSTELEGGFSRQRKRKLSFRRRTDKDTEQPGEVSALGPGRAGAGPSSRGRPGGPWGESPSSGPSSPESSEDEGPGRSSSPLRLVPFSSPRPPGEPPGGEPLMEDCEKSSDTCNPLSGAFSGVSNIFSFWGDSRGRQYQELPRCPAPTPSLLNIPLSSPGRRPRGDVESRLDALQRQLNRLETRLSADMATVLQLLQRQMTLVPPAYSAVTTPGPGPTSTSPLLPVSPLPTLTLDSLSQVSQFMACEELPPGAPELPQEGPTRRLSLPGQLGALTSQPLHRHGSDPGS
T2 sequence (P12821 30-1306): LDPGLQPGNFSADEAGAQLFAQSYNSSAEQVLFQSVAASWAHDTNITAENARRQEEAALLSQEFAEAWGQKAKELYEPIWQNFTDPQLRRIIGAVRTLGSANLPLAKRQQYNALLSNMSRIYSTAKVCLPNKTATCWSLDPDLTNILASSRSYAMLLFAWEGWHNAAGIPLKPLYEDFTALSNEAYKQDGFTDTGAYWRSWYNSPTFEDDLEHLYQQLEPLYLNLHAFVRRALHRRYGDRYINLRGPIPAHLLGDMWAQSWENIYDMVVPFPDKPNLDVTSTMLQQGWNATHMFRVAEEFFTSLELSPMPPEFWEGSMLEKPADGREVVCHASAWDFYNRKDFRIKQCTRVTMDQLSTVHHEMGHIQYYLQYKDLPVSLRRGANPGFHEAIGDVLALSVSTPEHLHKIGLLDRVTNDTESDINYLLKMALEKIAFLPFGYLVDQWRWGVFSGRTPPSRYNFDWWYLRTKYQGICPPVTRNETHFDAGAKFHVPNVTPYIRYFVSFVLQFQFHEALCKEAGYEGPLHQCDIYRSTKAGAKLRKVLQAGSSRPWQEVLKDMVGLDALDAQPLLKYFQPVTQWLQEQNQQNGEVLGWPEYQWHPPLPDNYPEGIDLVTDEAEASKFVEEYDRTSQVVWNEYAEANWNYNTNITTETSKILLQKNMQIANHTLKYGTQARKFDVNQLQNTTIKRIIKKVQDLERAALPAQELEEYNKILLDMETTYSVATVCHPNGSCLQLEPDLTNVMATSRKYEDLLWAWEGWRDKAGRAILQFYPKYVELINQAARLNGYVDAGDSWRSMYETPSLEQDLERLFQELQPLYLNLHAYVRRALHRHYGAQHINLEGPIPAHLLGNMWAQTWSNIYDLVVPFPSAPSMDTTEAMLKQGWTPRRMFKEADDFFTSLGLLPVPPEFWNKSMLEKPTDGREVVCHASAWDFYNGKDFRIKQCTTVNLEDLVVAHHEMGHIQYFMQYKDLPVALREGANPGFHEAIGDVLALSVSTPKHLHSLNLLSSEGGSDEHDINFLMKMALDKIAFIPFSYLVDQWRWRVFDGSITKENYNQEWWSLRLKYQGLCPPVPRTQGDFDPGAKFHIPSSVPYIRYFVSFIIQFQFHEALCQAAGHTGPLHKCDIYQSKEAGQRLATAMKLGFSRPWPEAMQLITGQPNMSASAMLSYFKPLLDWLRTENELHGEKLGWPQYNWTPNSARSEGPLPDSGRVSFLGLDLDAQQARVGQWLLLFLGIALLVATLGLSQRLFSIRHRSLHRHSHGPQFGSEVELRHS

Take `CC(c1cc2ccccc2s1)N(O)C(N)=O` (centres unmarked) [Zileuton]: the “Clinical Result” value at 5-Lipoxygenase (ALOX5) is on record as “No effect in patients who”. For the molecule `CCOC(=O)[C@H](CCc1ccccc1)N[C@@H](C)C(=O)N1CCC[C@H]1C(=O)O` [enalapril], on ACE (I/D), the “Clinical Result: response” value is on record as “Better response of patients”.

`O=c1[nH]c2ccccc2n1CCCN1CCN(C(c2ccccc2)c2ccccc2)CC1` [Oxatomid]: the “Clinical Result: adverse effect” value on KCNE2 (T8A in MiRP 1) is “Drug induced Long-QT-”. Turning to `NS(=O)(=O)c1cc2c(cc1Cl)NCNS2(=O)=O` [Hydrochlorothiazide], in the data set with Alpha-Adducin, the “Clinical Result: sensitivity” value is “hypertension). Higher”.

Turning to `C[C@H](N[C@@H](CCc1ccccc1)C(=O)O)C(=O)N1CCC[C@H]1C(=O)O` [Enalaprilat], at ACE (I/D), the “Clinical Result: response” value is “Better response of patients”. Turning to `CC(=O)Oc1ccccc1C(=O)O` [Aspirin], the “Clinical Result: antiplatelet effect” value in data set [1] is “Reduced response in patients”.

`Cc1cc(NS(=O)(=O)c2ccc(N)cc2)no1` [Sulfamethoxazol]: the “Clinical Result: adverse effect” value on KCNE2 (T8A in MiRP 1) was “Drug induced Long-QT-”.

B1: Abciximab (antibody, chains of the INN, looked up, V domains shown)
VH: EVQLQQSGTVLARPGASVKMSCEASGYTFTNYWMHWVKQRPGQGLEWIGAIYPGNSDTSYIQKFKGKAKLTAVTSTTSVYMELSSLTNEDSAVYYCTLYDGYYVFAYWGQGTLVTVSA
VL: EIVLTQSPVTLSVTPGDSVSLSCRASRDISNNLHWFQQTSHESPRLLIKYASQSMSGIPSRFSGSGSGTDFTLSINSVETEDFGMYFCQQTNSWPYTFGGGTKLEIK
As for B1, the “Clinical Result: antiplatelet effect” value in data set [1] is on record as “Reduced response in patients”.
